Assay results from publication PMC8512853, “Synthesis, Bioactivity, Pharmacokinetic and Biomimetic Properties of Multi-Substituted Coumarin Derivatives” (Molecules, 2021).

Key:
[1] = tested on: HaCaT cells; experiment: DCF-DA assay (intracellular ROS after H2O2); type: cell-based, human; details: H2O2 treatment, 24 h; for inhibition at 100 µM: Homo sapiens, 100 μΜ, read-out: DCFDA Assay, % (100 μΜ)
Excerpt: In the setting of evaluating bioactive compounds in terms of antioxidant capacity in various cell lines, DCF-DA is the most widely used assay for the detection of intracellular H2O2 and oxidative stress. DCF-DA is cell-permeable and is hydrolyzed intracellularly to the DCFH carboxylate anion, which is retained in the cell.
DCFDA is a fluorescent dye that measures the activity of hydroxyl radicals, peroxyl radicals, and other reactive oxygen species (ROS) within the cell. The DCFDA analysis protocol is based on the diffusion of DCFDA into the cell. It is then deacetylated from cellular esterases to a non-fluorescent compound, which is later oxidized by ROS to 2’,7’ -dichlorofluoroscein (DCF). The produced compound (DCF) is fluorescent and is detected by fluorescence spectroscopy at 485/535 nm (excitation/emission).
For the experimental procedure a standard solution of DCF-DA (20mM) in DMSO was prepared which was stored in the dark (−20 °C) until use. In a 96-well plate, cells were cultured to a density of 3 × 10^4 cells/well.
The cells remained in the incubator (37 °C, 5% CO2) for 24 h, after which an appropriate amount of H2O2 (2 mM) was added and the dish was returned for incubation for the next 2 h. This was followed by the addition of the test substances (100μM) and incubation for 24 h. At the end of the treatment time, all wells were washed with PBS, and DCF-DA solution (working concentration: 10 μM) (in 200 μL of nutrient) was added and incubated for 40 min.
After incubation, the medium with the DCF-DA was removed and replaced with FBS-free DMEM. The measurement of the […] was made immediately after that in a plate reader at 495/530 nm (excitation/emission).
All samples were tested in triplicates, against a control (without effects), blank (without cells), and positive control (standard 100 μM Ascorbic acid solution was used).
The percentage of antioxidant capacity (%) was calculated according to the following Equation (6) evaluating the presence of ROS [42]:(6) % AI=( OD Sample 530 nm−Blank)−(OD Control 530 nm−Blank)/(OD Control 530 nm−Blank) × 100

[2] = target: T1, soybean LOX (Glycine max, UniProt P08170); experiment: Inhibition of soybean LOX; type: biochemical; details: for inhibition at 100 µM: read-out: Soybean LOX % inhibition (100 μΜ)
T1 construct: purchased Sigma-Aldrich and Fluka
T1 sequence (P08170 1-839): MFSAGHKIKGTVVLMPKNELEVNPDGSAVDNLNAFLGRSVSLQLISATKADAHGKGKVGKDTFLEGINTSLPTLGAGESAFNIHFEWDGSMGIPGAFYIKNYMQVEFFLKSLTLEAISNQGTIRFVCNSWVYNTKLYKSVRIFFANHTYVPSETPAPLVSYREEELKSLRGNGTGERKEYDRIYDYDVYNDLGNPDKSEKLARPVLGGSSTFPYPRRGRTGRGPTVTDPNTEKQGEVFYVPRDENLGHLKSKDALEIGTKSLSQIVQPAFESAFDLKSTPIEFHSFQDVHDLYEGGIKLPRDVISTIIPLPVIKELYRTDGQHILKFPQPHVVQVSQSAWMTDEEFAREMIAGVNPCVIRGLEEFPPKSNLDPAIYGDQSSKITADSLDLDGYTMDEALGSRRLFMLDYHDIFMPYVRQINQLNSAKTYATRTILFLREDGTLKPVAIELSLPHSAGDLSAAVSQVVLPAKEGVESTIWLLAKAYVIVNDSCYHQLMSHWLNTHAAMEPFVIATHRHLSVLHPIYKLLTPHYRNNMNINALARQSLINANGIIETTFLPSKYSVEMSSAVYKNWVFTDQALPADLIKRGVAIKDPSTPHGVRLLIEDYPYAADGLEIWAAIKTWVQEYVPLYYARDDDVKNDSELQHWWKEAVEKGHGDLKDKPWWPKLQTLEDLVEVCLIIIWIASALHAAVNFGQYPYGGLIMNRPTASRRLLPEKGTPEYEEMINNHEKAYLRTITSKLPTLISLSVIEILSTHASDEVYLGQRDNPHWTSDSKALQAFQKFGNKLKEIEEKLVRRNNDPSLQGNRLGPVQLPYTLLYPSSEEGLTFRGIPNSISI
Experimental: Soybean LOX is a plant enzyme which has been used widely as a prototype for studying the functional and structural properties of the homologous family of lipoxygenases, presenting satisfactory homology with the human 5-LOX [14]. Linoleic acid (LA) is a standard substrate for plant LOXs. In this protocol, all new molecules were tested as inhibitors of soybean LOX as an indication of their anti-inflammatory activity (Table 3).
For the reference sample in a UV cuvette 10 μL of the test sample (100 μM diluted in DMSO), 200 μL LOX solution (diluted in NaCl 0.9%), 100 μL LA (diluted in Tris buffer) and Tris buffer solution (pH 9) were added to a final volume of 1 mL. Respectively for the measurement sample, also in a UV cuvette 10 μL of test sample, 200 μL LOX solution, and Tris buffer solution (pH 9) were added to a final volume of 1mL. Standard and blank samples were prepared in the same way using DMSO (solvent) instead of the tested coumarin analogues.

SMILES | inhibition at 100 µM [1] [%] | Soybean LOX % inhibition (100 μΜ) [2] | inhibition at 100 µM [2] [%] | IC50 [2] [µM] | DCFDA Assay, % (100 μΜ) [1]
CC(=O)Oc1cccc2oc(=O)c(-c3ccccc3Cl)c(C)c12 [Compound 3a, 5-acetyloxy-3-(2-chlorophenyl)-4-methyl-chromen-2-one] | 33.8 | inactive | 17 | – | –
CC(=O)Oc1cccc2oc(=O)c(-c3cccc(Cl)c3)c(C)c12 [Compound 3b, 5-acetyloxy-3-(3-chlorophenyl)-4-methyl-chromen-2-one] | 56.9 | – | – | 31.6 | –
CC(=O)Oc1cccc2oc(=O)c(-c3ccc(Cl)cc3)c(C)c12 [Compound 3c, 5-acetyloxy-3-(4-chlorophenyl)-4-methyl-chromen-2-one] | – | no | – | – | no
CC(=O)Oc1cccc2oc(=O)c(-c3ccccc3F)c(C)c12 [Compound 3d, 5-acetyloxy-3-(2-fluorophenyl)-4-methyl-chromen-2-one] | 22.4 | inactive | 11.6 | – | –
CC(=O)Oc1cccc2oc(=O)c(-c3cccc(F)c3)c(C)c12 [Compound 3e, 5-acetyloxy-3-(3-fluorophenyl)-4-methyl-chromen-2-one] | – | – | – | 11.4 | no
CC(=O)Oc1cccc2oc(=O)c(-c3ccc(F)cc3)c(C)c12 [Compound 3f, 5-acetyloxy-3-(4-fluorophenyl)-4-methyl-chromen-2-one] | 100 | inactive | 20.1 | – | –
CC(=O)Oc1cccc2oc(=O)c(-c3cccc(Br)c3)c(C)c12 [Compound 3g, 5-acetyloxy-3-(3-bromophenyl)-4-methyl-chromen-2-one] | 45.5 | – | – | 40.5 | –
CC(=O)Oc1ccc(-c2c(C)c3ccccc3oc2=O)cc1 [Compound 3h, 3-(4-acetyloxyphenyl)-4-methyl-chromen-2-one] | – | – | 33.8 | – | no
CC(=O)Oc1ccc(-c2c(C)c3cc(Br)ccc3oc2=O)cc1 [Compound 3i, 3-(4-acetyloxyphenyl)-6-bromo-4-methyl-chromen-2-one] | 80.9 | – | 46.5 | – | –
CC(=O)Oc1ccc(-c2c(C)c3cc(Cl)ccc3oc2=O)cc1 [Compound 3j, 3-(4-acetyloxyphenyl)-6-chloro-4-methyl-chromen-2-one] | 9 | – | – | 49.5 | –
CC(=O)Oc1ccc(-c2c(C)c3cc(Br)cc(Br)c3oc2=O)cc1 [Compound 3k, 3-(4-acetyloxyphenyl)-6,8-dibromo-4-methyl-chromen-2-one] | – | – | – | 8.7 | no
CC(=O)Oc1ccc(-c2c(C)c3ccccc3oc2=O)cc1OC(C)=O [Compound 3l, 3-(4,5-diacetyloxyphenyl)-4-methyl-chromen-2-one] | – | – | 31.4 | – | no
CC(=O)Oc1ccc(-c2c(C)c3cc(Br)ccc3oc2=O)cc1OC(C)=O [Compound 3m, 3-(4,5-diacetyloxyphenyl)-6-bromo-4-methyl-chromen-2-one] | – | – | 48 | – | no
CC(=O)Oc1ccc(-c2c(C)c3cc(Cl)ccc3oc2=O)cc1OC(C)=O [Compound 3n, 3-(4,5-diacetyloxyphenyl)-6-chloro-4-methyl-chromen-2-one] | – | – | – | 56.5 | no
CC(=O)Oc1ccc(-c2c(C)c3cc(Br)cc(Br)c3oc2=O)cc1OC(C)=O [Compound 3o, 3-(4,5-diacetyloxyphenyl)-6,8-dibromo-4-methyl-chromen-2-one] | 25.7 | no | – | – | –
Cc1c(-c2ccccc2Cl)c(=O)oc2cccc(O)c12 [Compound 4a, 3-(2-chlorophenyl)-5-hydroxy-4-methyl-chromen-2-one] | 0 | – | – | 10 | –
Cc1c(-c2cccc(Cl)c2)c(=O)oc2cccc(O)c12 [Compound 4b, 3-(3-chlorophenyl)-5-hydroxy-4-methyl-chromen-2-one] | 27.4 | – | 47.3 | – | –
Cc1c(-c2ccc(Cl)cc2)c(=O)oc2cccc(O)c12 [Compound 4c, 3-(4-chlorophenyl)-5-hydroxy-4-methyl-chromen-2-one] | – | – | 0.9 | – | no
Cc1c(-c2ccccc2F)c(=O)oc2cccc(O)c12 [Compound 4d, 3-(2-fluorophenyl)-5-hydroxy-4-methyl-chromen-2-one] | – | – | – | 31.6 | no
Cc1c(-c2cccc(F)c2)c(=O)oc2cccc(O)c12 [Compound 4e, 3-(3-fluorophenyl)-5-hydroxy-4-methyl-chromen-2-one] | – | – | – | 4.1 | no
Cc1c(-c2ccc(F)cc2)c(=O)oc2cccc(O)c12 [Compound 4f, 3-(4-fluorophenyl)-5-hydroxy-4-methyl-chromen-2-one] | – | – | 39.2 | – | no
Cc1c(-c2ccc(O)cc2)c(=O)oc2ccccc12 [Compound 4h, 3-(4-hydroxyphenyl)-4-methyl-chromen-2-one] | – | – | 27.2 | – | no
Cc1c(-c2ccc(O)cc2)c(=O)oc2ccc(Br)cc12 [Compound 4i, 6-bromo-3-(4-hydroxyphenyl)-4-methyl-chromen-2-one] | 100 | – | 19.3 | – | –
Cc1c(-c2ccc(O)cc2)c(=O)oc2ccc(Cl)cc12 [Compound 4j, 6-chloro-3-(4-hydroxyphenyl)-4-methyl-chromen-2-one] | 2.1 | – | 35 | – | –
Cc1c(-c2ccc(O)cc2)c(=O)oc2c(Br)cc(Br)cc12 [Compound 4k, 6,8-dibromo-3-(4-hydroxyphenyl)-4-methyl-chromen-2-one] | – | inactive | 33.4 | – | no
